Laboratory results published in US7205315B2, “Bicyclic imino acid derivatives as inhibitors of matrix metalloproteinases” (Sanofi-Aventis Deutschland GmbH, priority 2003, dated 2007).
Where a name gives a salt, the structure may show the parent alone.

Assays:
Assay type in all cases: biochemical
[1] = target: T1, catalytic domain of human neutrophilic collagenase (MMP-8) (Homo sapiens, UniProt P22894); assay: Enzyme activity of the catalytic domain of neutrophilic collagenase (MMP-8), fluorogenic substrate; conditions: catalytic domain prepared as described by Ye et al., fluorescence 328/393 nm
T1 construct: of the catalytic domain of human stromelysin (MMP-3) and neutrophilic collagenase (MMP-8); made in house
Method: (§1) b) Preparation, and determination of the enzyme activity, of the catalytic domain of human stromelysin (MMP-3) and neutrophilic collagenase (MMP-8).
(§2) The two enzymes, i.e. stromelysin (MMP-3) and neutrophilic collagenase (MMP-8), were prepared as described by Ye et al. (Biochemistry; 31 (1992) pages 11231–11235). In order to measure the enzyme activity or the inhibitory effect on the enzyme, 10 μl of enzyme solution were incubated, for 15 minutes, with 10 μl of a 3% (v/v) buffered solution of dimethyl sulfoxide which contained the enzyme inhibitor, where appropriate. After 10 μl of a 3% (v/v) aqueous solution of dimethyl sulfoxide which contained 1 mmol of substrate/l had been added, the enzyme reaction was monitored by fluorescence spectroscopy (328 nm (ex)/393 nm(em)).
(§3) The enzyme activity is presented as increase in extinction/minute.
(§4) The buffer solution contained 0.05% Brij (Sigma, Deisenhofen, Germany) as well as 0.1 mol of tris/HCl/l, 0.1 mol of NaCl/l, 0.01 mol of CaCl2/l and 0.1 mol of piperazine-N,N′-bis[2-ethanesulfonic acid]/l (pH=7.5). The MMP-3 enzyme solution contained 2.3 μg, and the MMP-8 enzyme solution contained 0.6 μg, of one of the enzyme domains/ml prepared as described by Ye et al. The substrate solution contained 1 mmol of the fluorogenic substrate (7-methoxycoumarin-4-yl)acetyl-Pro-Leu-Gly-Leu-3-(2′,4′-dinitrophenyl)-L-2,3-diaminopropionyl-Ala-Arg-NH2/l (Bachem, Heidelberg, Germany).

[2] = target: T2, catalytic domain of human gelatinase B (MMP-9) (Homo sapiens, UniProt P14780); assay: Enzyme activity of the catalytic domain of human gelatinase B (MMP-9), fluorogenic substrate; conditions: APMA-activated proenzyme, fluorescence 328/393 nm
T2 construct: enzyme activity of the catalytic domain of human gelatinase B (MMP-9); purchased Roche, Mannheim 1 758 896
Method: e) Determining the enzyme activity of the catalytic domain of human gelatinase B (MMP-9). […] Activation of the proenzyme:
(§5) 2 parts by volume of proenzyme were incubated, at 37° C. for 4 hours, with 1 part by volume of APMA solution. The APMA solution was prepared from a 10 mmol/l solution of p-aminophenylmercuric acetate in 0.1 mmol/l NaOH by diluting it with 3 parts by volume of tris/HCl buffer, pH 7.5 (see below). The pH was adjusted to between 7.0 and 7.5 by adding 1 mmol/l HCl. After the enzyme had been activated, it was diluted with the tris/HCl buffer to a concentration of 4.2 mU/ml.
In order to measure the activity of the enzyme, 10 μl of enzyme solution were incubated for 15 minutes with 10 μl of a 3% (v/v) buffered solution of dimethyl sulfoxide (reaction 1). In order to measure the enzyme inhibitor activity, 10 μl of enzyme solution were incubated with 10 μl of a 3% (v/v) buffered solution of dimethyl sulfoxide which contained the enzyme inhibitor (reaction 2). Both in the case of reaction 1 and in the case of reaction 2, the enzyme reaction was monitored by fluorescence spectroscopy (328 nm (extinction)/393 nm (emission)) after 10 ul of a 3% (v/v) aqueous solution of dimethyl sulfoxide, which contained 0.15 mmol of the substrate/l, had been added.
(§6) The enzyme activity was presented as increase in extinction/minute.
The inhibitory effect was calculated as percentage inhibition in accordance with the following formula: % inhibition=100−[(increase in extinction/minute in reaction 2)/(increase in extinction/minute in reaction 1)×100].
(§7) The IC50, that is the concentration of inhibitor which is required for 50% inhibition of the enzyme activity, was determined graphically by plotting the percentage inhibitions at different inhibitor concentrations.
The buffer solution contained 0.05% Brij (Sigma, Deisenhofen, Germany) and also 0.1 mol of tris/HCl/l, 0.1 mol of NaCl/l, 0.01 mol of CaCl2/l (pH=7.5). The enzyme solution contained 4.2 mU of the enzyme domain/ml. The substrate solution contained 0.15 mmol of the fluorogenic substrate (7-methoxycoumarin-4-yl)acetyl-Pro-Leu-Gly-Leu-3-(2′,4′-dinitrophenyl)-L-2,3-diaminopropionyl-Ala-Arg-NH2/ (Bachem, Heidelberg, Germany).

[3] = target: T3, catalytic domain of human gelatinase A (MMP-2) (Homo sapiens, UniProt P08253); assay: Enzyme activity of the catalytic domain of human gelatinase A (MMP-2), fluorogenic substrate; conditions: APMA-activated proenzyme, fluorescence 328/393 nm
T3 construct: enzyme activity of the catalytic domain of human gelatinase A (MMP-2); purchased INVITEK, Berlin 30 100 602
Method: d) Determining the enzyme activity of the catalytic domain of human gelatinase A (MMP-2). […] Activation of the proenzyme:
as §5, with “0.5 hour,” for “4 hours,”, “0.83 μg/ml.” for “4.2 mU/ml.”
In order to measure the enzyme activity, 10 μl of enzyme solution were incubated for 15 minutes with 10 μl of a 3% (v/v) buffered solution of dimethyl sulfoxide (reaction 1). In order to measure the enzyme inhibitor activity, 10 μl of enzyme solution were incubated with 10 μl of a 3% (v/v) buffered solution of dimethyl sulfoxide which contained the enzyme inhibitor (reaction 2).
Both in the case of reaction 1 and in the case of reaction 2, the enzyme reaction was monitored by fluorescence spectroscopy (328 nm (extinction)/393 nm (emission)) after 10 μl of a 3% (v/v) aqueous solution of dimethyl sulfoxide which contained 0.3 mmol of the substrate/1 had been added.
as §6
The effect of the inhibitor was calculated as percentage inhibition in accordance with the following formula: % inhibition=100−[(increase in extinction/minute in reaction 2)/(increase in extinction/minute in reaction 1)×100].
as §7
The buffer solution contained 0.05% Brij (Sigma, Deisenhofen, Germany) and also 0.1 mol of tris/HCl/l, 0.1 mol of NaCl/l, 0.01 mol of CaCl2/l (pH=7.5). The enzyme solution contained 0.83 μg of the enzyme domain/ml. The substrate solution contained 0.3 mmol of the fluorogenic substrate (7-methoxycoumarin-4-yl)acetyl-Pro-Leu-Gly-Leu-3-(2′,4′-dinitrophenyl)-L-2,3-diaminopropionyl-Ala-Arg-NH2/l (Bachem, Heidelberg, Germany).

[4] = target: T4, catalytic domain of human stromelysin (MMP-3) (Homo sapiens, UniProt P08254); assay: Enzyme activity of the catalytic domain of human stromelysin (MMP-3), fluorogenic substrate; conditions: catalytic domain prepared as described by Ye et al., fluorescence 328/393 nm
T4 construct: of the catalytic domain of human stromelysin (MMP-3) and neutrophilic collagenase (MMP-8); made in house
Method: as §1, §2, §3, §4

T2 sequence (P14780 107-707 limits assumed): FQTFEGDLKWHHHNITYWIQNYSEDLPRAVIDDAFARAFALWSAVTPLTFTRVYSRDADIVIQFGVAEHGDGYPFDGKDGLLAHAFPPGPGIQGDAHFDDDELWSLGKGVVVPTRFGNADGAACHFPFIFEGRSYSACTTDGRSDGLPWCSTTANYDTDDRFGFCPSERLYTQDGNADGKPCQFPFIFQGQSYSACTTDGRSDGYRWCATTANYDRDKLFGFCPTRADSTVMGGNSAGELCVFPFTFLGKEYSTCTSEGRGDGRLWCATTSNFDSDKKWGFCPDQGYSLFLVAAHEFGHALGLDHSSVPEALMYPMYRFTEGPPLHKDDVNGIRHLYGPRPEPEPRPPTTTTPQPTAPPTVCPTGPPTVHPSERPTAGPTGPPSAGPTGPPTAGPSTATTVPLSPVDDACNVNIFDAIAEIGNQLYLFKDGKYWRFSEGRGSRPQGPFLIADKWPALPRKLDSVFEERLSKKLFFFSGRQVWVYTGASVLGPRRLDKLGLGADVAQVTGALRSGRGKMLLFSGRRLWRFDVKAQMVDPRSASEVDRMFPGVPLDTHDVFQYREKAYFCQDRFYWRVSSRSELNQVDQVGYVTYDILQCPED
T1 sequence (P22894 100-262 limits assumed): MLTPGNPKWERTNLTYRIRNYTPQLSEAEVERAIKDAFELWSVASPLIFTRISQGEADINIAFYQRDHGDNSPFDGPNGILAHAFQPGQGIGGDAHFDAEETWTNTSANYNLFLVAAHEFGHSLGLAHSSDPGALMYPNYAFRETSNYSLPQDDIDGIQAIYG
T3 sequence (P08253 110-465 limits assumed): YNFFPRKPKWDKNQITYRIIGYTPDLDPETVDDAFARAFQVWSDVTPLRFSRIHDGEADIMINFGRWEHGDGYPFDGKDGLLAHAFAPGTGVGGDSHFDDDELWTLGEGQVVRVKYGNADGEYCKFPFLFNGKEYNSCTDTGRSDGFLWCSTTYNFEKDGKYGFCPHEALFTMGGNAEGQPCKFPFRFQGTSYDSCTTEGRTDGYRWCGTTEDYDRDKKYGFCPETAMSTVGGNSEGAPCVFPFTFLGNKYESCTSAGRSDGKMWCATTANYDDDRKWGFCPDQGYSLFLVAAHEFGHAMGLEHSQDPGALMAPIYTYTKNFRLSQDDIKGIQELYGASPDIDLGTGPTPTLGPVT
T4 sequence (P08254 100-272 limits assumed): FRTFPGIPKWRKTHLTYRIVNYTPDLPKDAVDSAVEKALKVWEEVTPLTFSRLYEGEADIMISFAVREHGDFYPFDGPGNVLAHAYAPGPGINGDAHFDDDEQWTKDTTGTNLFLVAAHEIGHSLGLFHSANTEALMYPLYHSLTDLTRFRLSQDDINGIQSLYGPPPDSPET

Row | Structure (SMILES) | IC50 [1] [nM] | IC50 [2] [nM] | IC50 [3] [nM] | IC50 [4] [nM]
1 | O=C(NO)C1C2CCCCC2CCN1S(=O)(=O)c1ccc(-c2ccc(OC(F)(F)F)cc2)cc1 (stereo not shown) [Example 19, 2-(4′-trifluoromethoxybiphenyl-4-sulfonyl)decahydroisoquinoline-1-(N-hydroxy)carboxamide] | 10 | 5 | 3 | 59
2 | O=C(NO)C1C2CCCCC2CCN1S(=O)(=O)c1ccc(Oc2ccc(OC(F)(F)F)cc2)cc1 (stereo not shown) [Example 23, 2-[4-(4-trifluoromethoxyphenoxy)benzenesulfonyl]decahydroisoquinoline-1-(N-hydroxy)carboxamide] | 9 | 2 | 2 | 50
3 | O=C(NO)C1C2CCCCC2CCN1S(=O)(=O)c1ccc(Oc2ccc(F)cc2)cc1 (stereo not shown) [Example 20, 2-[4-(4-fluorophenoxy)benzenesulfonyl]decahydroisoquinoline-1-(N-hydroxy)carboxamide] | 3 | 2 | 2 | 26
4 | O=C(NO)C1C2CCCCC2CCN1S(=O)(=O)CCc1ccc(-c2ccc(Cl)cc2)cc1 (stereo not shown) [Example 7, 2-[2-(4′-chlorobiphenyl-4-yl)ethanesulfonyl]decahydroisoquinoline-1-(N-hydroxy)carboxamide] | 13 | 3 | 4 | 65
5 | O=C(NO)[C@@H]1[C@@H]2CCCC[C@@H]2CCN1S(=O)(=O)c1ccc(-c2ccc(Cl)cc2)cc1 (single isomer, unassigned) [Example 15, 2-(4′-chlorobiphenyl-4-sulfonyl)decahydroisoquinoline-1-(N-hydroxy)-carboxamide] | 2000 | 4000 | 2300 | 10000
6 | N#Cc1ccc(Oc2ccc(S(=O)(=O)N3CCC4CCCCC4C3C(=O)NO)cc2)cc1 (stereo not shown) [Example 26, 2-[4-(4-cyanophenoxy)benzenesulfonyl]decahydroisoquinoline-1-(N-hydroxy)carboxamide] | 16 | 3 | 8 | 41
7 | O=C(NO)C1C2CCCCC2CCN1S(=O)(=O)c1ccc(Oc2ccc(OCC(F)(F)F)cc2)cc1 (stereo not shown) [Example 13, 2-{4-[4-(2,2,2-trifluoroethoxy)phenoxy]benzenesulfonyl}decahydroisoquinoline-1-(N-hydroxy)carboxamide] | 4 | 2 | 2.6 | 30
8 | O=C(NO)[C@H]1[C@H]2CCCC[C@H]2CCN1S(=O)(=O)c1ccc(-c2ccc(Cl)cc2)cc1 (single isomer, unassigned) [Example 14, 2-(4′-chlorobiphenyl-4-sulfonyl)decahydroisoquinoline-1-(N-hydroxy)-carboxamide] | 2.2 | 3.5 | 2 | 25
9 | O=C(NO)[C@H]1[C@H]2CCCC[C@H]2CCN1S(=O)(=O)c1ccc(Oc2ccc(F)cc2)cc1 [Example 21, 2-[4-(4-fluorophenoxy)benzenesulfonyl]decahydroisoquinoline-1-(N-hydroxy)carboxamide] | 2.3 | 0.45 | 1.5 | 23
10 | O=C(NO)C1C2CCCCC2CCN1S(=O)(=O)c1ccc(-c2ccc(Cl)cc2)cc1 (stereo not shown) [Example 3, 2-(4′-chlorobiphenyl-4-sulfonyl)decahydroisoquinoline-1-(N-hydroxy)-carboxamide] | 3 | 100 | 30 | 40
11 | COc1ccc(Oc2ccc(S(=O)(=O)N3CCC4CCCCC4C3C(=O)NO)cc2)cc1 (stereo not shown) [Example 11, 2-[4-(4-methoxyphenoxy)benzenesulfonyl]decahydroisoquinoline-1-(N-hydroxy)carboxamide] | 2.5 | 2 | 2 | 25
12 | O=C(NO)C1C2CCCCC2CCN1S(=O)(=O)c1ccc(Oc2ccncc2)cc1 (stereo not shown) [Example 9, 2-[4-(pyridin-4-yloxy)benzenesulfonyl]decahydroisoquinoline-1-(N-hydroxy)carboxamide trifluoroacetate] | 22 | 12 | 20 | 160
13 | O=C(NO)C1C2CCCCC2CCN1S(=O)(=O)c1ccc(Oc2ccccc2)nc1 (stereo not shown) [Example 5, 2-(6-phenoxypyridine-3-sulfonyl)decahydroisoquinoline-1-(N-hydroxy)-carboxamide trifluoroacetate] | 2.5 | 1.2 | 2 | 28
